ChEMBL document CHEMBL3885861, “Open TG-GATES”

Organism: Rattus norvegicus
Assay: Open TG-GATES - Regimen: Single
Type: toxicity, organism-based, Sprague-Dawley
Parameters: regimen Single, gender Male, age 6 weeks
Details: in vivo, po, 0 mg/kg, route gavage, dose level Control; for APTT / Bas / Eos / Fbg / Hb / Ht / Lym / MCH / MCHC / MCV / Mono / Neu / PT / Plat / RBC / Ret / WBC: tissue Blood; for KIDNEY_L / KIDNEY_R / KIDNEY_TOTAL: tissue Kidney; for LIVER: tissue Liver; for A/G / ALP / ALT / AST / BUN / CRE / Ca / Cl / DBIL / GLC / IP / K / LDH / Na / PL / RALB / TBIL / TC / TG / TP / gamma-GTP: tissue Plasma

OCCOCCN1CCN(C(c2ccccc2)c2ccc(Cl)cc2)CC1 (configuration not stated) [HYDROXYZINE]
TERMINAL_BW (3 h): 191.8 g | APTT (3 h): 16.4 s | Bas (3 h): 0% | Eos (3 h): 0.8% | Fbg (3 h): 287 mg/dL | Hb (3 h): 13.2 g/dL | Ht (3 h): 41% | Lym (3 h): 78% | MCH (3 h): 21.5 pg | MCHC (3 h): 32.3% | MCV (3 h): 66.6 fL | Mono (3 h): 3% | Neu (3 h): 17.4% | PT (3 h): 15.4 s | Plat (3 h): 120.7 x10_4/uL | RBC (3 h): 616 x10_4/ul | Ret (3 h): 8.7% | WBC (3 h): 71.8 x10_2/uL | KIDNEY_L (3 h): 0.9 g | KIDNEY_R (3 h): 0.9 g | KIDNEY_TOTAL (3 h): 1.7 g | LIVER (3 h): 8.6 g | A/G (3 h): 0.8 | ALP (3 h): 1501.4 IU/L | ALT (3 h): 41 IU/L | AST (3 h): 73 IU/L | BUN (3 h): 9 mg/dL | CRE (3 h): 0.2 mg/dL | Ca (3 h): 10.9 mg/dL | Cl (3 h): 106 meq/L | DBIL (3 h): 0.012 mg/dL | GLC (3 h): 176.8 mg/dL | IP (3 h): 9.2 mg/dL | K (3 h): 4.2 meq/L | LDH (3 h): 61.8 IU/L | Na (3 h): 141.8 meq/L | PL (3 h): 138.6 mg/dL | RALB (3 h): 2.5 g/dL | TBIL (3 h): 0.056 mg/dL | TC (3 h): 75.4 mg/dL | TG (3 h): 68.8 mg/dL | TP (3 h): 5.4 g/dL | gamma-GTP (3 h): 1 IU/L | TERMINAL_BW (6 h): 194.9 g | APTT (6 h): 16.3 s | Bas (6 h): 0% | Eos (6 h): 0.4% | Fbg (6 h): 298.6 mg/dL | Hb (6 h): 13.1 g/dL | Ht (6 h): 40.8% | Lym (6 h): 76.2% | MCH (6 h): 21.7 pg | MCHC (6 h): 32.1% | MCV (6 h): 67.5 fL | Mono (6 h): 2.4% | Neu (6 h): 20.4% | PT (6 h): 15.3 s | Plat (6 h): 116.6 x10_4/uL | RBC (6 h): 604 x10_4/ul | Ret (6 h): 9% | WBC (6 h): 60.3 x10_2/uL | KIDNEY_L (6 h): 0.9 g | KIDNEY_R (6 h): 0.9 g | KIDNEY_TOTAL (6 h): 1.8 g | LIVER (6 h): 8.5 g | A/G (6 h): 0.9 | ALP (6 h): 1502.2 IU/L | ALT (6 h): 36.4 IU/L | AST (6 h): 68.8 IU/L | BUN (6 h): 9.2 mg/dL | CRE (6 h): 0.2 mg/dL | Ca (6 h): 10.9 mg/dL | Cl (6 h): 105.2 meq/L | DBIL (6 h): 0.012 mg/dL | GLC (6 h): 183.6 mg/dL | IP (6 h): 9.9 mg/dL | K (6 h): 4.2 meq/L | LDH (6 h): 56.2 IU/L | Na (6 h): 141.6 meq/L | PL (6 h): 147.6 mg/dL | RALB (6 h): 2.5 g/dL | TBIL (6 h): 0.058 mg/dL | TC (6 h): 81.4 mg/dL | TG (6 h): 52.6 mg/dL | TP (6 h): 5.3 g/dL | gamma-GTP (6 h): 0.8 IU/L | TERMINAL_BW (9 h): 191 g | APTT (9 h): 16.5 s | Bas (9 h): 0% | Eos (9 h): 0.8% | Fbg (9 h): 260.4 mg/dL | Hb (9 h): 12.9 g/dL | Ht (9 h): 39.9% | Lym (9 h): 73.4% | MCH (9 h): 20.5 pg | MCHC (9 h): 32.4% | MCV (9 h): 63.5 fL | Mono (9 h): 2.6% | Neu (9 h): 22.4% | PT (9 h): 15.2 s | Plat (9 h): 110.7 x10_4/uL | RBC (9 h): 631.2 x10_4/ul | Ret (9 h): 8.2% | WBC (9 h): 82.7 x10_2/uL | KIDNEY_L (9 h): 0.9 g | KIDNEY_R (9 h): 0.9 g | KIDNEY_TOTAL (9 h): 1.8 g | LIVER (9 h): 7.9 g | A/G (9 h): 0.9 | ALP (9 h): 1265.6 IU/L | ALT (9 h): 38 IU/L | AST (9 h): 75 IU/L | BUN (9 h): 9.4 mg/dL | CRE (9 h): 0.1 mg/dL | Ca (9 h): 10.6 mg/dL | Cl (9 h): 105.4 meq/L | DBIL (9 h): 0.012 mg/dL | GLC (9 h): 176.2 mg/dL | IP (9 h): 10.1 mg/dL | K (9 h): 4.2 meq/L | LDH (9 h): 55.4 IU/L | Na (9 h): 142 meq/L | PL (9 h): 129.4 mg/dL | RALB (9 h): 2.5 g/dL | TBIL (9 h): 0.068 mg/dL | TC (9 h): 76.8 mg/dL | TG (9 h): 21 mg/dL | TP (9 h): 5.4 g/dL | gamma-GTP (9 h): 1 IU/L | TERMINAL_BW (24 h): 204.1 g | APTT (24 h): 15.6 s | Bas (24 h): 0.2% | Eos (24 h): 0.8% | Fbg (24 h): 275.8 mg/dL | Hb (24 h): 13.1 g/dL | Ht (24 h): 40.4% | Lym (24 h): 80.2% | MCH (24 h): 21.6 pg | MCHC (24 h): 32.6% | MCV (24 h): 66.3 fL | Mono (24 h): 2.6% | Neu (24 h): 15.8% | PT (24 h): 16 s | Plat (24 h): 114.8 x10_4/uL | RBC (24 h): 609.2 x10_4/ul | Ret (24 h): 7.1% | WBC (24 h): 63.9 x10_2/uL | KIDNEY_L (24 h): 0.9 g | KIDNEY_R (24 h): 0.9 g | KIDNEY_TOTAL (24 h): 1.8 g | LIVER (24 h): 9.3 g | A/G (24 h): 0.9 | ALP (24 h): 1738.8 IU/L | ALT (24 h): 43.4 IU/L | AST (24 h): 71 IU/L | BUN (24 h): 14.8 mg/dL | CRE (24 h): 0.1 mg/dL | Ca (24 h): 11.2 mg/dL | Cl (24 h): 106.6 meq/L | DBIL (24 h): 0.014 mg/dL | GLC (24 h): 176.8 mg/dL | IP (24 h): 7.6 mg/dL | K (24 h): 4.5 meq/L | LDH (24 h): 64.4 IU/L | Na (24 h): 141.4 meq/L | PL (24 h): 147.8 mg/dL | RALB (24 h): 2.6 g/dL | TBIL (24 h): 0.056 mg/dL | TC (24 h): 75.2 mg/dL | TG (24 h): 75.4 mg/dL | TP (24 h): 5.7 g/dL | gamma-GTP (24 h): 0.8 IU/L
